In patent publication US8466188B2, “Use of spiro-oxindole compounds as therapeutic agents” (Xenon Pharmaceuticals Inc., priority 2006, dated 2013):

Compound | melting point [°C]
CC(C)c1nc(CN2C(=O)C3(COc4cc5c(cc43)OCO5)c3ccccc32)co1 (stereo not shown) [Example 10.58, 1′-[(2-isopropyl-1,3-oxazol-4-yl)methyl]spiro[furo[2,3-f][1,3]benzodioxole-7,3′-indol]-2′(1′H)-one] | 118 to 120
O=C1N(Cc2ccc(Cl)s2)c2ccc(F)cc2C12COc1cc3c(cc12)OCO3 (stereo not shown) [Example 10.61, 1′-[(5-chloro-2-thienyl)methyl]-5′-fluorospiro[furo[2,3-f][1,3]benzodioxole-7,3′-indol]-2′(1′H)-one] | 142 to 144
O=C1N(Cc2ccc(Cl)o2)c2ccccc2C12COc1cc3c(cc12)OCO3 (stereo not shown) [Example 10.62, 1′-[(5-chloro-2-furyl)methyl]spiro[furo[2,3-f][1,3]benzodioxole-7,3′-indol]-2′(1′H)-one] | 148 to 150
CN1C(C)(C)CC(O)(CN2C(=O)C3(COc4cc5c(cc43)OCO5)c3ccccc32)CC1(C)C (stereo not shown) [Example 10.63, 1′-[(4-hydroxy-1,2,2,6,6-pentamethylpiperidin-4-yl)methyl]spiro[furo[2,3-f][1,3]benzodioxole-7,3′-indol]-2′(1′H)-one] | 210 to 214
O=C1N(Cc2ccc(-c3ccccc3Cl)o2)c2ccccc2C12COc1cc3c(cc12)OCO3 (stereo not shown) [Example 10.64, 1′-{[5-(2-chlorophenyl)-2-furyl]methyl}spiro[furo[2,3-f][1,3]benzodioxole-7,3′-indol]-2′(1′H)-one] | 148 to 150
Cc1ccc(CN2C(=O)C3(COc4cc5c(cc43)OCO5)c3ccccc32)o1 (stereo not shown) [Example 10.65, 1′-[(5-methyl-2-furyl)methyl]spiro[furo[2,3-f][1,3]benzodioxole-7,3′-indol]-2′(1′H)-one] | 117 to 119
O=C1N(Cc2ccc(Cl)s2)c2ccccc2C12COc1cc3c(cc12)OCO3 (stereo not shown) [Example 10.67, 1′-[(5-chloro-2-thienyl)methyl]spiro[furo[2,3-f][1,3]benzodioxole-7,3′-indol]-2′(1′H)-one] | 145 to 146
O=C1N(Cc2sc(C(F)(F)F)cc2O)c2ccccc2C12COc1cc3c(cc12)OCO3 (stereo not shown) [Example 10.68, 1′-{[3-hydroxy-5-(trifluoromethyl)-2-thienyl]methyl}spiro[furo[2,3-f][1,3]benzodioxole-7,3′-indol]-2′(1′H)-one] | 225 to 227
O=C1N(Cc2cnc(Cl)s2)c2ccccc2C12COc1cc3c(cc12)OCO3 (stereo not shown) [Example 10.70, 1′[(2-chloro-1,3-thiazol-5-yl)methyl]spiro[furo[2,3-f][1,3]benzodioxole-7,3′-indol]-2′(1′H)one] | 195 to 198
O=C1N(Cc2ccc(C(F)(F)F)o2)c2ccccc2C12COc1cc3c(cc12)OCC3 (stereo not shown) [Example 10.71, 1′-{[5-(trifluoromethyl)-2-furyl]methyl}-6,7-dihydrospiro[benzo[1,2-b:4,5-b′]difuran-3,3′-indol]-2′(1′H)-one] | 174 to 177
O=C1N(Cc2ccc(C(F)(F)F)s2)c2ccccc2C12COc1cc3c(cc12)OCO3 (stereo not shown) [Example 10.73, 1′-{[5-(trifluoromethyl)-2-thienyl]methyl}spiro[furo[2,3-f][1,3]benzodioxole-7,3′-indol]-2′(1′H)-one] | 127 to 130
COc1cc(C(F)(F)F)sc1CN1C(=O)C2(COc3cc4c(cc32)OCO4)c2ccccc21 (stereo not shown) [Example 10.74, 1′-{[3-methoxy-5-(trifluoromethyl)-2-thienyl]methyl}spiro[furo[2,3-f][1,3]benzodioxole-7,3′-indol]-2′(1′H)-one] | 178 to 180
Cc1cccc2c1C1(COc3cc4c(cc31)OCO4)C(=O)N2Cc1ccc(C(F)(F)F)o1 (stereo not shown) [Example 10.75, 4′-methyl-1′-{[5-(trifluoromethyl)-2-furyl]methyl}spiro[furo[2,3-f][1,3]benzodioxole-7,3′-indol]-2′(1′H)-one] | 117 to 119
Cc1ccc2c(c1)C1(COc3cc4c(cc31)OCO4)C(=O)N2Cc1ccc(C(F)(F)F)o1 (stereo not shown) [Example 10.76, 5′-methyl-1′-{[5-(trifluoromethyl)-2-furyl]methyl}spiro[furo[2,3-f][1,3]benzodioxole-7,3′-indol]-2′(1′H)-one] | 96 to 98
N#Cc1ccc(CN2C(=O)C3(COc4cc5c(cc43)OCO5)c3ccccc32)o1 (stereo not shown) [Example 10.80, 5-[(2′-oxospiro[furo[2,3-f][1,3]benzodioxole-7,3′-indol]-1′(2′H)-yl)methyl]-2-furonitrile] | 167 to 169
CS(=O)(=O)c1ccc(CN2C(=O)C3(COc4cc5c(cc43)OCO5)c3ccccc32)o1 (stereo not shown) [Example 10.81, 1′-{[5-(methylsulfonyl)-2-furyl]methyl}spiro[furo[2,3-f][1,3]benzodioxole-7,3′-indol]-2′(1′H)-one] | 177 to 179
O=C1N(Cc2ccc(=O)[nH]c2)c2ccccc2C12COc1cc3c(cc12)OCO3 (stereo not shown) [Example 10.82, 1′-[(6-oxo-1,6-dihydropyridin-3-yl)methyl]spiro[furo[2,3-f][1,3]benzodioxole-7,3′-indol]-2′(1′H)-one] | 247 to 250
Cn1cc(CN2C(=O)C3(COc4cc5c(cc43)OCO5)c3ccccc32)ccc1=O (stereo not shown) [Example 10.83, 1′-[(1-methyl-6-oxo-1,6-dihydropyridin-3-yl)methyl]spiro[furo[2,3-f][1,3]benzodioxole-7,3′-indol]-2′(1′H)-one] | 115 to 118
O=C1N(Cc2nnc(Cl)s2)c2ccccc2C12COc1cc3c(cc12)OCO3 (stereo not shown) [Example 10.85, 1′-[(5-chloro-1,3,4-thiadiazol-2-yl)methyl]spiro[furo[2,3-f][1,3]benzodioxole-7,3′-indol]-2′(1′H)-one] | 194 to 197
O=C1N(CC2CCN(c3ccccn3)CC2)c2ccccc2C12COc1cc3c(cc12)OCO3 (stereo not shown) [Example 10.86, 1′-[(1-pyridin-2-ylpiperidin-4-yl)methyl]spiro[furo[2,3-f][1,3]benzodioxole-7,3′-indol]-2′(1′H)-one] | 95 to 97
O=C1N(Cc2ccc(C(F)(F)F)o2)c2ccccc2C12COc1cc(OC(F)(F)F)ccc12 (stereo not shown) [Example 10.90, 6-(trifluoromethoxy)-1′-{[5-(trifluoromethyl)-2-furyl]methyl}spiro[1-benzofuran-3,3′-indol]-2′(1′H)-one] | 78 to 80
COc1ccc(CN2C(=O)C3(COc4cc(OC(F)(F)F)ccc43)c3ccccc32)cc1 (stereo not shown) [Example 10.91, 1′-(4-methoxybenzyl)-6-(trifluoromethoxy)spiro[1-benzofuran-3,3′-indol]-2′(1′H)-one] | 82 to 84
O=C1N(CC2CCCCC2)c2ccccc2C12COc1cc3c(cc12)OCO3 (stereo not shown) [Example 10.92, 1′-(cyclohexylmethyl)spiro[furo[2,3-f][1,3]benzodioxole-7,3′-indol]-2′(1′H)-one] | 153 to 154
CS(=O)(=O)N1C(=O)C2(COc3cc4c(cc32)OCO4)c2ccccc21 (stereo not shown) [Example 10.93, 1′-(methylsulfonyl)spiro[furo[2,3-f][1,3]benzodioxole-7,3′-indol]-2′(1′H)-one] | 215 to 217
CC(C)(C)OC(=O)N1CCC(CCN2C(=O)C3(COc4cc5c(cc43)OCO5)c3ccccc32)CC1 (stereo not shown) [Example 10.96, tert-butyl 4-[2-(2′-oxospiro[furo[2,3-f][1,3]benzodioxole-7,3′-indol]-1′(2′H)-yl)ethyl]piperidine-1-carboxylate] | 173 to 175
CCCCCN1C(=O)C2(COc3cc4c(cc32)OCO4)c2c(C(=O)Nc3cccc(OC)c3)cccc21 (stereo not shown) [Example 29.1, N-(3-methoxyphenyl)-2′-oxo-1′-pentyl-1′,2′-dihydrospiro[furo[2,3-f][1,3]benzodioxole-7,3′-indole]-4′-carboxamide] | 173 to 175
O=C1N(Cc2nc3cc(F)ccc3[nH]2)c2ccccc2C12COc1cc3c(cc12)OCO3 (stereo not shown) [Example 53, 1′-[(5-fluoro-1H-benzimidazol-2-yl)methyl]spiro[furo[2,3-f][1,3]benzodioxole-7,3′-indol]-2′(1′H)-one] | 138 to 142
COc1ccc2c(c1)C1(CO2)C(=O)N(C)c2ccccc21 (stereo not shown) [Example 58, 5-methoxy-1′-methylspiro[1-benzofuran-3,3′-indol]-2′(1′H)one] | 159 to 161
